# Experimental data taken from patent US10928381B2, “In vitro methods of monitoring autophagy in a human cell using a photoconvertable fluorescent protein linked biomarker” (The Regents of the University of Michigan, priority 2018, dated 2021).
# “Also recorded” adds a separate entry of the source.
# Test system: ATG5-deficient Dendra2-LC3 HEK cells
# Assay: Autophagic flux in Dendra2-LC3 HEK cells with ATG5 siRNA knockdown
# Type: cell-based, human
# Conditions: 20 nM ATG5 siRNA two days prior to imaging, red and green channels
# Method: FIG. 6, panels a-c. Evaluation of autophagy-modifying compounds in ATG5-deficient cells. […] IB, immunoblot.
# FIGS. 8A-E. Time dependent decay of Dendra2-LC3 as an assay of autophagic flux. (FIG. 8A) Dendra2-LC3 reporter cells were imaged prior to photoconversion to measure background TRITC intensity. Immediately following photoconversion with a 5 second pulse of […] light, cells were treated with DMSO, 1 uM Torin1, or 10 nM Bafilomycin-A1 and then were subsequently imaged at the indicated time points. Images are psuedocolored to better highlight intensity differences. (FIGS. 8B-E) Time dependent changes in photoconverted Dendra2-LC3 fluorescence in the TRITC (FIGS. 8B, D) and GFP (FIGS. 8C, E) channels. Gray boxes represent the pre and post-photoconversion time points. […]
# The possibility that cell death and toxicity mimics the reduction in GFP intensity that would otherwise denote autophagy induction was also addressed. To avoid confounding from toxicity, the area occupied by cells in each image is calculated using ImageJ software and used as a proxy for cell number; since all wells received the same number of cells, >25% reductions in the area occupied by cells at the end of the experiment indicates toxicity. The formation of Dendra2-LC3 puncta in each condition is scored simultaneously using the ‘analyze particles’ function in ImageJ. […]
smiles,measurement,setting,value
"CCC(=O)N1CCN(c2ccc(-n3c(=O)ccc4cnc5ccc(-c6cnc7ccccc7c6)cc5c43)cc2C(F)(F)F)CC1 [Torin1, torin1]",Effect of ATG5 knockdown on drug-induced autophagic flux,,attenuates the effects
same,Effect of ATG5 knockdown on drug-induced autophagic flux,listed as torin1,attenuates the ability of torin1 to induce autophagic flux; also recorded: mitigated the autophagy-inducing effects
